Measured values as given in patent US3984393A, “Aminoglycoside antibiotics” (The Upjohn Company, priority 1975, dated 1976).
Values after ≈ are worked out from the molar mass of the structure shown. Read-outs that look alike come from different tables or passages of the source.

Assays:
S. aureus UC 76 = assay: standard microplate test in BHI Agar (MIC), S. aureus UC 76; assay type: cell-based, Staphylococcus aureus; conditions: Staphylococcus aureus, UC76, 20 h
Outline: (§1)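 End points are read after 20 hours of incubation at 37° on Brain Heart Infusion agar microplates, with each compound applied at 1 mg/ml.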

S. aureus UC 570 = assay: standard microplate test in BHI Agar (MIC), S. aureus UC 570; assay type: cell-based; conditions: Staphylococcus aureus, UC570, 20 h, 37°, first table, read-out: Minimum Inhibitory Concentration
Description: (§2) Compounds were also tested in a standard microplate test in Brain Heart Infusion (BHI) Agar, at a concentration of 1 mg/ml. Incubation is at 37° and end points are read at 20 hours. Brain Heart Infusion Agar (supplied by Difco Laboratories, Detroit, Michigan, U.S.A.) has the following composition: […]

S. aureus UC 746 = assay: standard microplate test in BHI Agar (MIC), S. aureus UC 746; assay type: cell-based; conditions: Staphylococcus aureus, UC746, 20 h, 37°, first table, read-out: Minimum Inhibitory Concentration
Description: as §2

S. hemolyticus UC 152 = assay: standard microplate test in BHI Agar (MIC), S. hemolyticus UC 152; assay type: cell-based, Streptococcus hemolyticus; conditions: Streptococcus pyogenes, UC152, 20 h, read-out: Minimum Inhibitory Concentration, S. hemolyticus UC 152
Outline: as §1

St. faecalis UC 694 = assay: standard microplate test in BHI Agar (MIC), St. faecalis UC 694; assay type: cell-based; conditions: Enterococcus faecalis, UC694, 20 h
Outline: as §1

E. coli UC 45 = assay: standard microplate test in BHI Agar (MIC), E. coli UC 45; assay type: cell-based; conditions: Escherichia coli, UC45, 20 h, read-out: Minimum Inhibitory Concentration, E. coli UC 45
Outline: as §1

P. vulgaris UC 93 = assay: standard microplate test in BHI Agar (MIC), P. vulgaris UC 93; assay type: cell-based; conditions: Proteus vulgaris, UC93, 20 h, read-out: Minimum Inhibitory Concentration, P. vulgaris UC 93
Outline: as §1

K. pneumoniae UC 58 = assay: standard microplate test in BHI Agar (MIC), K. pneumoniae UC 58; assay type: cell-based; conditions: Klebsiella pneumoniae, UC58, 20 h, read-out: Minimum Inhibitory Concentration, K. pneumoniae UC 58
Outline: as §1

S. schottmuelleri UC 126 = assay: standard microplate test in BHI Agar (MIC), S. schottmuelleri UC 126; assay type: cell-based; conditions: 20 h, read-out: Minimum Inhibitory Concentration
Description: Compounds were also tested in a standard microplate test in Brain Heart Infusion (BHI) Agar, at a concentration of 1 mg/ml. Incubation is at 37° and end points are read at 20 hours. Brain Heart Infusion Agar (supplied by Difco Laboratories, Detroit, Michigan, U.S.A.) has the following composition:
Compounds (7β), (7α) and (9) were tested again along with compounds (11) and (14β) against a neamine control using the same conditions as given above.

Ps. aeruginosa UC 95 = assay: standard microplate test in BHI Agar (MIC), Ps. aeruginosa UC 95; assay type: cell-based; conditions: Pseudomonas aeruginosa, UC95, 20 h, read-out: Minimum Inhibitory Concentration, Ps. aeruginosa UC 95
Outline: as §1

D. pneumoniae UC 41 = assay: standard microplate test in BHI Agar (MIC), D. pneumoniae UC 41; assay type: cell-based; conditions: Streptococcus pneumoniae, UC41, 20 h, read-out: Minimum Inhibitory Concentration, D. pneumoniae UC 41
Outline: as §1

P. mirabilis A-63 = assay: standard microplate test in BHI Agar (MIC), P. mirabilis A-63; assay type: cell-based
Outline: as §1

P. morgani UC 3186 = assay: standard microplate test in BHI Agar (MIC), P. morgani UC 3186; assay type: cell-based; conditions: 20 h, read-out: Minimum Inhibitory Concentration, P. morgani UC 3186, retest table, neamine control
Outline: as §1

P. rettgeri UC 339 = assay: standard microplate test in BHI Agar (MIC), P. rettgeri UC 339; assay type: cell-based; conditions: Providencia rettgeri, UC339, 20 h, read-out: Minimum Inhibitory Concentration, P. rettgeri UC 339, retest table, neamine control
Outline: as §1

S. marcescens UC 131 = assay: standard microplate test in BHI Agar (MIC), S. marcescens UC 131; assay type: cell-based; conditions: Serratia marcescens, UC131, 20 h, read-out: Minimum Inhibitory Concentration, S. marcescens UC 131, retest table, neamine control
Outline: as §1

S. flexneri UC 143 = assay: standard microplate test in BHI Agar (MIC), S. flexneri UC 143; assay type: cell-based; conditions: retest table, neamine control
Outline: as §1

S. typhi TG-3 = assay: standard microplate test in BHI Agar (MIC), S. typhi TG-3; assay type: cell-based; conditions: Salmonella enterica, 20 h, S. typhi TG-3, retest table, neamine control, read-out: Minimum Inhibitory Concentration
Outline: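 Compounds were tested at 1 mg/ml in Brain Heart Infusion agar by microplate assay. Plates were incubated at 37° and end points read at 20 hours.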

[1] = BHI agar, 37°, 20 h, first table
[2] = BHI agar, 37°, 20 h, first table, *run on different day
[3] = retest table, group (7β), (14β), neamine control
[4] = retest table, group (9), (11), (7α), neamine control

With NC[C@H]1O[C@H](O[C@H]2[C@H](O)[C@@H](O)[C@H](N)C[C@@H]2N)[C@H](N)[C@@H](O)[C@@H]1O [Neamine, reference compound] the MIC (S. aureus UC 76; read-out: Minimum Inhibitory Concentration, S. aureus 284 UC 76, BHI agar, 37°, 20 h, first table) was 125 µg/mL (≈ 388 µM), the MIC (S. aureus UC 76; read-out: Minimum Inhibitory Concentration, S. aureus 284 UC 76, BHI agar, 37°, 20 h, first table, *run on different day) was 62.5 µg/mL (≈ 194 µM) and the MIC (S. aureus UC 76; read-out: Minimum Inhibitory Concentration, S. aureus UC 76, retest table, group (7β), (14β), neamine control) was 31.2 µg/mL (≈ 96.8 µM). For the same molecule, the MIC (S. aureus UC 76; read-out: Minimum Inhibitory Concentration, S. aureus UC 76, retest table, group (9), (11), (7α), neamine control) was 31.2 µg/mL (≈ 96.8 µM), the MIC (S. aureus UC 570; *run on different day) was 62.5 µg/mL (≈ 194 µM) and the MIC (S. aureus UC 570) was 250 µg/mL (≈ 776 µM). For the same molecule, the MIC (S. aureus UC 746; *run on different day) was 62.5 µg/mL (≈ 194 µM), the MIC (S. aureus UC 746) was 250 µg/mL (≈ 776 µM) and the MIC (S. hemolyticus UC 152; [1]) was 3.9 µg/mL (≈ 12.1 µM). For the same molecule, the MIC (S. hemolyticus UC 152; [2]) was 7.8 µg/mL (≈ 24.2 µM), the MIC (S. hemolyticus UC 152; [3]) was 3.9 µg/mL (≈ 12.1 µM) and the MIC (S. hemolyticus UC 152; [4]) was 2 µg/mL (≈ 6.2 µM). It also gave an MIC (St. faecalis UC 694; read-out: Minimum Inhibitory Concentration, S. faecalis UC 694, retest table, group (7β), (14β), neamine control) of 500 µg/mL (≈ 1550 µM), an MIC (St. faecalis UC 694; read-out: Minimum Inhibitory Concentration, S. faecalis UC 694, retest table, group (9), (11), (7α), neamine control) of 500 µg/mL (≈ 1550 µM) and an MIC (St. faecalis UC 694; read-out: Minimum Inhibitory Concentration, St. faecalis UC 694, BHI agar, 37°, 20 h, first table) of 1000 µg/mL (≈ 3100 µM). The MIC (St. faecalis UC 694; read-out: Minimum Inhibitory Concentration, St. faecalis UC 694, BHI agar, 37°, 20 h, first table, *run on different day) was 500 µg/mL (≈ 1550 µM), the MIC (E. coli UC 45; [1]) was 62.5 µg/mL (≈ 194 µM) and the MIC (E. coli UC 45; [2]) was 125 µg/mL (≈ 388 µM). It also gave an MIC (E. coli UC 45; [3]) of 62.5 µg/mL (≈ 194 µM), an MIC (E. coli UC 45; [4]) of 62.5 µg/mL (≈ 194 µM) and an MIC (P. vulgaris UC 93; [1]) of 250 µg/mL (≈ 776 µM). For the same molecule, the MIC (P. vulgaris UC 93; [2]) was 125 µg/mL (≈ 388 µM), the MIC (P. vulgaris UC 93; [3]) was 62.5 µg/mL (≈ 194 µM) and the MIC (P. vulgaris UC 93; [4]) was 15.6 µg/mL (≈ 48.4 µM). For the same molecule, the MIC (K. pneumoniae UC 58; [1]) was 7.8 µg/mL (≈ 24.2 µM), the MIC (K. pneumoniae UC 58; [2]) was 15.6 µg/mL (≈ 48.4 µM) and the MIC (K. pneumoniae UC 58; [3]) was 3.9 µg/mL (≈ 12.1 µM). It also gave an MIC (K. pneumoniae UC 58; [4]) of 7.8 µg/mL (≈ 24.2 µM), an MIC (S. schottmuelleri UC 126; BHI agar, 37°, first table, *run on different day) of 62.5 µg/mL (≈ 194 µM) and an MIC (S. schottmuelleri UC 126; BHI agar, 37°, first table) of 62.5 µg/mL (≈ 194 µM). The MIC (S. schottmuelleri UC 126; [3]) was 31.2 µg/mL (≈ 96.8 µM), the MIC (S. schottmuelleri UC 126; [4]) was 62.5 µg/mL (≈ 194 µM) and the MIC (Ps. aeruginosa UC 95; [1]) was > 1000 µg/mL. For the same molecule, the MIC (Ps. aeruginosa UC 95; [2]) was > 1000 µg/mL, the MIC (Ps. aeruginosa UC 95; [3]) was 1000 µg/mL (≈ 3100 µM) and the MIC (Ps. aeruginosa UC 95; [4]) was 1000 µg/mL (≈ 3100 µM). For the same molecule, the MIC (D. pneumoniae UC 41; [1]) was > 1000 µg/mL, the MIC (D. pneumoniae UC 41; [2]) was > 1000 µg/mL and the MIC (D. pneumoniae UC 41; [3]) was 31.2 µg/mL (≈ 96.8 µM). For the same molecule, the MIC (D. pneumoniae UC 41; [4]) was 62.5 µg/mL (≈ 194 µM), the “Minimum Inhibitory Concentration” value (P. mirabilis A-63; P. mirabilis A-63, retest table, group (7β), (14β), neamine control) was 250 µg/mL and the MIC (P. mirabilis A-63; Proteus mirabilis, A63, 20 h, read-out: Minimum Inhibitory Concentration) was 250 µg/mL (≈ 776 µM). For the same molecule, the MIC (P. morgani UC 3186; group (7β), (14β)) was 62.5 µg/mL (≈ 194 µM), the MIC (P. morgani UC 3186; group (9), (11), (7α)) was 31.2 µg/mL (≈ 96.8 µM) and the MIC (P. rettgeri UC 339; group (7β), (14β)) was 1000 µg/mL (≈ 3100 µM). The MIC (P. rettgeri UC 339; group (9), (11), (7α)) was 500 µg/mL (≈ 1550 µM), the MIC (S. marcescens UC 131; group (7β), (14β)) was 250 µg/mL (≈ 776 µM) and the MIC (S. marcescens UC 131; group (9), (11), (7α)) was 125 µg/mL (≈ 388 µM). The MIC (S. flexneri UC 143; Shigella flexneri, UC143, 20 h, group (9), (11), (7α), read-out: Minimum Inhibitory Concentration) was 62.5 µg/mL (≈ 194 µM), the “Minimum Inhibitory Concentration” value (S. flexneri UC 143; group (7β), (14β)) was 62.5 µg/mL and the MIC (S. typhi TG-3; group (7β), (14β)) was 15.6 µg/mL (≈ 48.4 µM). The MIC (S. typhi TG-3; group (9), (11), (7α)) was 31.2 µg/mL (≈ 96.8 µM).
